“And” between values parts separate entries of the source, which are not always exact repeats. Equal entries are not always repeated.
How the values were obtained:
GK rats = assay: GK rat acute oral glucose tolerance test (OGTT) with insulin co-measurement; type: in vivo; set-up: Blood Glucose AUC / Insulin AUC: unit not given here; conditions: for Blood Glucose / Insulin (plasma) / Insulin AUC / Blood Glucose AUC: individual GK rats; for Insulin AUC: OGTT t = 0 to 60 min; for Blood Glucose AUC: OGTT t = 0 to 120 min
Method: On the day of the study, male GK rats were bled via tail snip, and blood glucose was measured via glucometer (OneTouch Ultra, Lifescan Inc., Milpitas, CA). Fed glucose was measured at 8 A.M. (lights on 7 A.M.– 7 P.M.) and used to select and sort animals into treatment groups (n = 8/ GK group, plus n = 6/WKY control group). Animals were then placed into clean cages, and food was removed. […] Dosages from 0.3–10 mg MK-2305 / kg body weight were tested. Both the GK and WKY control groups received vehicle (0.5% methylcellulose). Blood glucose was measured again (time = 0) immediately prior to a dextrose challenge of 1 g/kg at 10 ml/kg dose volume (Dextrose, Hospira Inc., Lake Forrest IL) and then again at 20, 40, 60, and 120 min after the glucose challenge. Insulin was co-measured to test the glucose-dependent secretory response to MK-2305 delivered acutely PO. […] […] Values of percent inhibition vs. vehicle for each treatment were generated from the AUC data. Maximally efficacious dose (MED) was defined as the minimum dosage generating a maximum inhibition of glucose excursion achieved with this compound in the OGTT assay.
Plasma was analyzed for triglycerides, NEFA, and HbA1C using a P Modular Roche Clinical Chemistry analyzer. Liver triglycerides were extracted as described by Bligh and Dyer, and were measured using the Infinity triglyceride assay kit (Thermo Scientific, Rockford, IL). Plasma insulin levels were measured via EIA (Mesoscale Discovery ELISA Kit, Gaithersburg MD).

[1] = test system: pancreatic islets of Langerhans from wild-type mice; assay: glucose stimulated insulin secretion (GSIS), isolated wild-type islets; type: cell-based, mouse; conditions: WT islets; for secreted insulin per islet: 10 uM compound, 60 min, individual wells
Method: Pancreatic islets of Langerhans were isolated from wild-type and GPR40−/− mice (littermates) by collagenase digestion and discontinuous Ficoll gradient separation. […] Insulin secretion was determined by a 1 hr static incubation in Krebs-Ringer bicarbonate (KRB) buffer in a 96-well format as previously described. Briefly, islets were first preincubated in KRB medium with 2 mmol/l glucose for 30 min and were then transferred to a 96-well plate (three islets/well) and incubated with 200 μl of the KRB medium with 2 or 15 mmol/l glucose in the presence or absence of testing compounds for 60 min. The buffer was removed from the wells at the end of the incubation and assayed for insulin levels using the Ultrasensitive Rat Insulin ELISA kit (ALPCO, Salem, NH). All insulin secretion data were normalized by total islet numbers (ex: three islets/well), so the unit is secreted insulin (ng/ml) per islet.

[2] = 10 mg/kg PO, GK rats, p < 0.001
[3] = 0.3 mpk PO, 60 min after glucose challenge
[4] = 1 mpk PO, 60 min after glucose challenge
[5] = 3 mpk PO, 60 min after glucose challenge
[6] = 10 mpk PO, 60 min after glucose challenge

O=C1NC(=O)C(C2CCOc3cc(Oc4ccc(C(F)(F)F)cc4Cl)ccc32)S1 (centres unmarked) [MK-2305]
decrease of glucose AUC vs. vehicle in OGTT (GK rats; 0.3 mg/kg PO, GK rats, p < 0.001): 18%
increase in plasma insulin vs. vehicle during OGTT (GK rats; 1 mg/kg PO, GK rats, p < 0.001): 59%
increase in plasma insulin vs. vehicle during OGTT (GK rats; 3 mg/kg PO, GK rats, p < 0.001): 83%
reduction in glucose AUC from vehicle in OGTT (GK rats; 3 mg/kg PO, GK rats, p < 0.001): 40%
decrease of glucose AUC vs. vehicle in OGTT (GK rats; [2]): 54%
increase in plasma insulin vs. vehicle during OGTT (GK rats; [2]): 124%
Blood Glucose (GK rats; 0.3 mpk PO, 40 min after glucose challenge): 254 mg/dl and 284 mg/dl and 328 mg/dl and 294 mg/dl (2×) and 264 mg/dl and 219 mg/dl and 321 mg/dl
Blood Glucose (GK rats; [3]): 197 mg/dL and 204 mg/dL and 264 mg/dL and 233 mg/dL and 229 mg/dL and 270 mg/dL and 209 mg/dL and 330 mg/dL
Insulin (plasma) (GK rats; [3]): 1.219 ng/mL and 1.901 ng/mL and 1.676 ng/mL and 1.551 ng/mL and 1.782 ng/mL and 1.959 ng/mL and 1.355 ng/mL and 1.696 ng/mL
Blood Glucose (GK rats; 0.3 mpk PO, 120 min after glucose challenge): 149 mg/dL and 196 mg/dL and 217 mg/dL and 188 mg/dL and 177 mg/dL and 203 mg/dL and 145 mg/dL and 249 mg/dL
Insulin AUC (GK rats; 0.3 mpk PO): 107.011 and 73.5773 and 77.5052 and 96.9965 and 105.345 and 92.3289 and 113.426 and 113.509
Blood Glucose AUC (GK rats; 0.3 mpk PO): 30355 and 22170 and 34265 and 24465 and 25900 and 30390 and 27140 and 25850
Insulin (plasma) (GK rats; 0.3 mpk PO, time 0 min (before glucose challenge)): 1.527 ng/mL and 1.4 ng/mL and 1.238 ng/mL and 1.748 ng/mL and 1.648 ng/mL and 1.595 ng/mL and 1.041 ng/mL and 1.268 ng/mL
Insulin (plasma) (GK rats; 0.3 mpk PO, time -70 min (before dosing)): 0.785 ng/mL and 1.027 ng/mL and 1.247 ng/mL and 1.425 ng/mL and 1.262 ng/mL and 0.879 ng/mL and 0.539 ng/mL and 0.638 ng/mL
Blood Glucose (GK rats; 1 mpk PO, 40 min after glucose challenge): 191 mg/dL and 247 mg/dL and 193 mg/dL and 178 mg/dL and 222 mg/dL and 184 mg/dL and 221 mg/dL and 228 mg/dL
Blood Glucose (GK rats; [4]): 162 mg/dL and 197 mg/dL and 120 mg/dL and 151 mg/dL and 200 mg/dL and 153 mg/dL and 188 mg/dL and 185 mg/dL
Insulin (plasma) (GK rats; [4]): 1.868 ng/mL and 1.957 ng/mL and 1.358 ng/mL and 2.073 ng/mL and 2.523 ng/mL and 1.285 ng/mL and 2.265 ng/mL and 1.751 ng/mL
Blood Glucose (GK rats; 1 mpk PO, 120 min after glucose challenge): 120 mg/dL and 147 mg/dL and 101 mg/dL and 113 mg/dL and 162 mg/dL and 119 mg/dL and 110 mg/dL and 132 mg/dL
Insulin AUC (GK rats; 1 mpk PO): 127.564 and 125.822 and 145.583 and 145.346 and 124.296 and 92.8339 and 131.803 and 160.953
Blood Glucose AUC (GK rats; 1 mpk PO): 18600 and 21570 and 21405 and 19360 and 22440 and 17695 and 17840 and 23185
Insulin (plasma) (GK rats; 1 mpk PO, time 0 min (before glucose challenge)): 1.711 ng/mL and 2.457 ng/mL and 1.219 ng/mL and 2.149 ng/mL and 2.161 ng/mL and 2.386 ng/mL and 1.648 ng/mL and 2.525 ng/mL
Insulin (plasma) (GK rats; 1 mpk PO, time -70 min (before dosing)): 0.867 ng/mL and 1.049 ng/mL and 0.952 ng/mL and 1.247 ng/mL and 1.294 ng/mL and 0.937 ng/mL and 1.068 ng/mL and 1.695 ng/mL
Blood Glucose (GK rats; 3 mpk PO, 40 min after glucose challenge): 134 mg/dl and 184 mg/dl and 174 mg/dl (2×) and 183 mg/dl and 148 mg/dl and 181 mg/dl and 197 mg/dl
Blood Glucose (GK rats; [5]): 117 mg/dl and 116 mg/dl (2×) and 128 mg/dl and 136 mg/dl and 121 mg/dl and 86 mg/dl and 167 mg/dl
Insulin (plasma) (GK rats; [5]): 1.611 ng/mL and 1.625 ng/mL and 1.542 ng/mL and 2.593 ng/mL and 2.136 ng/mL and 0.682 ng/mL and 1.668 ng/mL and 1.737 ng/mL
Blood Glucose (GK rats; 3 mpk PO, 120 min after glucose challenge): 98 mg/dl and 130 mg/dl and 111 mg/dl and 112 mg/dl and 104 mg/dl (2×) and 78 mg/dl and 124 mg/dl
Insulin AUC (GK rats; 3 mpk PO): 154.858 and 139.888 and 150.655 and 143.381 and 149.287 and 136.931 and 166.524 and 165.471
Blood Glucose AUC (GK rats; 3 mpk PO): 13845 and 15230 and 19575 and 14655 and 17655 and 16235 and 16890 and 15775
Insulin (plasma) (GK rats; 3 mpk PO, time 0 min (before glucose challenge)): 2.038 ng/mL and 2.813 ng/mL and 2.511 ng/mL and 1.822 ng/mL and 2.53 ng/mL and 1.993 ng/mL and 3.94 ng/mL and 2.292 ng/mL
Insulin (plasma) (GK rats; 3 mpk PO, time -70 min (before dosing)): 1.014 ng/mL and 1.059 ng/mL and 0.86 ng/mL and 1.354 ng/mL and 1.26 ng/mL and 1.009 ng/mL and 0.738 ng/mL and 0.715 ng/mL
Insulin (plasma) (GK rats; 10 mpk PO, 10 min after glucose challenge): 2.601 ng/mL and 2.364 ng/mL and 2.726 ng/mL and 5.09 ng/mL
Blood Glucose (GK rats; 10 mpk PO, 40 min after glucose challenge): 175 mg/dL and 159 mg/dL and 143 mg/dL and 141 mg/dL and 190 mg/dL and 140 mg/dL and 169 mg/dL and 138 mg/dL
Blood Glucose (GK rats; [6]): 112 mg/dL and 121 mg/dL and 110 mg/dL and 96 mg/dL and 134 mg/dL and 125 mg/dL and 136 mg/dL and 122 mg/dL
Insulin (plasma) (GK rats; [6]): 3.212 ng/mL and 2.293 ng/mL and 2.244 ng/mL and 2.355 ng/mL and 1.203 ng/mL and 2.734 ng/mL and 1.35 ng/mL and 1.965 ng/mL
Blood Glucose (GK rats; 10 mpk PO, 120 min after glucose challenge): 95 mg/dL and 96 mg/dL and 92 mg/dL and 103 mg/dL and 108 mg/dL and 106 mg/dL and 90 mg/dL and 86 mg/dL
Insulin AUC (GK rats; 10 mpk PO): 214.776 and 171.523 and 203.357 and 192.34 and 162.197 and 187.807 and 233.894 and 115.015
Blood Glucose AUC (GK rats; 10 mpk PO): 15625 and 16245 and 14660 and 15615 and 15760 and 13890 and 14070 and 17780
Insulin (plasma) (GK rats; 10 mpk PO, time 0 min (before glucose challenge)): 4.429 ng/mL and 3.472 ng/mL and 2.279 ng/mL and 3.372 ng/mL and 2.041 ng/mL and 3.234 ng/mL and 3.429 ng/mL and 2.217 ng/mL
Insulin (plasma) (GK rats; 10 mpk PO, time -70 min (before dosing)): 1.186 ng/mL and 1.004 ng/mL and 1.491 ng/mL and 1.304 ng/mL and 0.764 ng/mL and 1.19 ng/mL and 0.996 ng/mL and 0.784 ng/mL
Blood Glucose (GK rats; 10 mpk PO, time AM (fed, before dosing)): 188 mg/dL and 169 mg/dL and 124 mg/dL and 160 mg/dL
MED (maximally efficacious dose) in OGTT (GK rats; GK rats, PO): 3 mg/kg
secreted insulin per islet ([1]; 2mM glucose): 0.6472 ng/ml per islet and 0.4249 ng/ml per islet and 0.7026 ng/ml per islet and 0.678 ng/ml per islet and 0.4061 ng/ml per islet and 0.594 ng/ml per islet and 0.652 ng/ml per islet and 0.541 ng/ml per islet
secreted insulin per islet ([1]; 15 mM Glucose): 5.982 ng/ml per islet and 3.69 ng/ml per islet and 4.728 ng/ml per islet and 4.578 ng/ml per islet and 5.448 ng/ml per islet and 3.948 ng/ml per islet and 4.236 ng/ml per islet and 5.162 ng/ml per islet
effect on GSIS ([1]; high (15 mM) but not basal (2 mM) glucose): acutely stimulate GSIS
